Test results reported in US11104684B2, “Dimers of covalent NFKB inhibitors” (BOARD OF REGENTS OF THE UNIVERSITY OF NEBRASKA, priority 2016, dated 2021).

Experiments:
[1] = tested on: OVCAR5 SP cells; assay: Side population analysis (Hoechst 33342, flow cytometry); settings: 60 μM, 15 min at 37° C.
Protocol: (§2) Hoechst 33342 dye (5 μg) was added to each tube and incubated for 45 min at 37° C. Tubes were vortexed slightly after every 5 min. Cells were resuspended in a single cell suspension after centrifugation and kept on ice before acquisition. The side-population was measured by flow cytometry.

[2] = Dose limiting toxicities / MTD study; format: in vivo
Protocol: Six to eight-week-old C57 Albino mice (18-22 grams) were used in this study and were randomly assigned. For MTD studies, 3 mice were randomly assigned to six groups. Animals (Group 1-6) received a single dose of (0, 1, 5, 10, 20 and 100 mg/Kg in […] neat DMSO) of 36-252 via intraperitoneal injection. Mice were sacrificed after 48 hours, and blood and serum samples were subjected to hematology and clinical chemistry analyses. For group 7, a 6-day, 5 mg/kg/day study was carried out followed by submission of samples for hematology and clinical chemistry analyses.
In the phase I study, the lethal dose or maximum tolerated dose of 36-252 was evaluated. […] In the phase II study, three mice at 5 mg/kg/day were administered intraperitoneally for six days.

[3] = tested on: high grade serous carcinoma (HGSC) ovarian cancer cell lines; assay: Growth inhibition in a panel of HGSC ovarian cancer cell lines; format: cell-based
Protocol: The IC50 value of all three inhibitors was greater than 20 μM in this cell line.

[4] = tested on: A2780 SP cells; assay: Side population analysis (Hoechst 33342, flow cytometry); settings: 60 μM, 15 min at 37° C.
Protocol: as §2

[5] = tested on: caspase 3/7 activity in HGSC cell lines; assay: Caspase 3/7 luciferase assay (apoptosis); format: cell-based; settings: 1 μM, 6 hours, five HGSC cell lines
Protocol: To determine the effect of 36-252 on apoptosis, a small panel of HGSC cell lines was treated with 1 μM 36-252 for 6 hours (1 μM of flavopiridol was used as a positive control). Caspases are a class of cysteine proteinases that are activated during apoptosis and measuring caspase activity is routinely used to detect activation of apoptotic signaling. Activation of caspase 3/7 was assessed using a luciferase assay.
2500 cells were plated in a 384-well black walled clear bottom plate at 2,500 cells per well in […] per well in the presence of 4.5 μM doxycycline. Cells were incubated overnight to adhere to plate. After cells were treated and plate was allowed to incubate, Caspase-glo (Promega G8093) reagent was added and the plate was allowed to incubate for 30 min. The plate was then read for luminescence at 1000 ms. Presto-blue was added at a volume of 1/10 total volume per well (2.5μL) and cells were allowed to incubate for 10 min. The plate was then read for fluorescence at 560ex/590em. Values were calculated by: ([Luminescence*100]/Fluorescence)/DMSOavg.

[6] = tested on: A2780 cells; assay: Cell viability assay (PrestoBlue, 72 hour drug incubation); format: cell-based; settings: 72 hour incubation, growth inhibition; for IC50: Homo sapiens
Protocol: (§1) MiaPaCa2, A2780, and OVCAR5 cells were plated at 4000 cells/well in a 96-well plate and allowed to adhere overnight. The following day, cells were treated with compounds using ˜10-fold dilutions starting at 1000 nM. PrestoBlue reagent (Invitrogen #A13262) was added to cells after 72 hour drug incubation to assess the growth inhibition. Fluorescence excitation/emission was measured at 560/590nM using a SpectraMax M5^e instrument. Growth inhibition was calculated using 100-[100*(Samples-T0)/(T100-T0)]. T0 is the vehicle control reading immediately following drug addition and T100 is the control reading at the end of 72 hour incubation.

[7] = tested on: OVCAR5 cells; assay: as above; format: cell-based; settings: growth inhibition; for IC50: Homo sapiens, OVCAR-5, 72 hour incubation
Protocol: as §1

[8] = tested on: MiaPaCa2 cells; assay: as above; format: cell-based; settings: Homo sapiens, MIA PaCa-2, 72 hour incubation, growth inhibition
Protocol: as §1

[9] = tested on: TNF-α-induced NFκB activity in A549 luciferase cells; assay: kB-luciferase assay; format: cell-based; settings: 20, 4, and 0.8 pM for 2 hours, then TNF-a
Protocol: A549 luciferase cells were seeded in white 96-well plates at a density of 50,000 cells per well and incubated overnight. Cells were stimulated with 20 ng/mL TNFα (Panomics) for 3 hours. AlamarBlue (abSerotec) was added (which served as a control for seeding and viability) and the cells were incubated for 3 additional hours. ONE-Glo Luciferase reagent (Promega) was added to each well and cells were incubated at room temperature for an additional 10 minutes before luminescence was measured at 1000 ms integration on a SpectraMax M5e plate reader.
The effect 36-252 and 36-297 on NFκB driven gene expression was evaluated using a cancer cell line specifically designed to monitor the activity of NFκB in response to TNF-α. Cells were seeded onto 96-well plates and allowed to attach overnight. The cells were treated with 36-252 and 36-297 (20, 4, and 0.8 pM) for 2 hours, followed by TNF-a for an additional 6 hours. Under multiplexing conditions the cells were assayed for viability using Alamar Blue (Ab Serotec) and the NFκB transcription activity using the ONE-Glo luciferase system (Promega).

[10] = tested on: proteins in the IKK complex (A2780 cells); assay: Western blot analysis of crosslinking; format: cell-based; settings: for crosslinking (high molecular weight bands): A2780 cells, 10 pM, 2 hours
Protocol: Crosslinking of proteins in the IKK complex was studied as follows. A2780 cells were treated with 10 pM of analog 19 or 36-252 and incubated for 2 hours.
Cells were washed with cold 1×PBS 3 times and scraped before being lysed by a buffer containing the following: 50 mM Tris, 100 mM NaCl, 1% NP-40, […], 20% SDS, 20×PPl (Na3VO4, NAF, β-glycerophosphate) and 1 mmol/L PMSF. After collection, samples were incubated on ice for 30 minutes and vortexed in 15 minute intervals. Samples were then centrifuged at 14,000rpm for 10 minutes at 4° C. and supernatant was collected. Protein quantification was determined by BCA Protein Assay (Pierce #23225). 20-40ug protein samples were run on 4-15% gradient gels (BioRad) in 1×TRIS-Glycine-SDS Buffer (Research Products International Corporation #T32080) at 120V for -60 minutes and separated by SDS-page electrophoresis. Samples were transferred to a PVDF membrane by semi-dry transfer method (ThermoScientific #35035) run at 18V for ˜35 minutes. Membranes were blocked in 5% milk diluted in 1×-Tris Buffered Saline with 0.1% Tween (1×TBST) for 1 hour at room temperature rocking at low speed. Primary antibodies were diluted in 5% milk in 1×TBST and were rocked gently overnight in 4° C. Membranes were incubated with the appropriate HRP-conjugated secondary antibody for 1 hour at room temperature while gently rocking. 3 washes (10 minute) with 1×TBST occurred before and after secondary antibody. ECL Prime (GE Healthcare #RPB2236) was used to detect protein expression

[11] = tested on: non-transformed HGSC precursor fallopian tube epithelial (FTE) cells FT282; assay: Growth inhibition in non-transformed fallopian tube epithelial cells; format: cell-based; settings: for IC50: Epithelial cell, non-transformed FT282 cells
Protocol: Monomeric compound 19, 36-252, and 36-242 were evaluated in non-transformed HGSC precursor fallopian tube epithelial (FTE) cells FT282.

[12] = tested on: ovarian cancer cells; assay: 3-day growth assay; format: cell-based
Description: In the same assay, reduced compound 36-297.

[13] = mouse, in vivo, ip, 5 mg/kg/day
[14] = panel of HGSC ovarian cancer cell lines

SMILES | IC50 [6] [µM] | IC50 [7] [µM] | IC50 [8] [µM] | also measured
C=C1CC2(OC1=O)C(=O)N(CCCCCCCN1C(=O)C3(CC(=C)C(=O)O3)c3ccccc31)c1ccccc12 (centres unmarked) [Compound 36-252] | 0.32 | 0.32 | 0.76 | SP cells eliminated, OVCAR5 [1]: > 85%; Treated/Alive ([2]; 1 mg/Kg, 1 dose, intraperitoneal, mice): (3/3); hematological analysis (WBC, RBC, hemoglobin) ([2]; mouse, in vivo): no significant differences in relative WBC, RBC, or hemoglobin numbers; overt toxicity ([2]; mouse, in vivo, 100 mg/kg): no sign of overt toxicity was observed; mean body weight [2, 13]: nor was any statistical difference in mean body weight observed; mortality and clinical levels [2, 13]: No mortality or abnormal clinical levels were observed; IC50 ([3]; average over HGSC cell lines): 780 nM; potency compared with 19 and 36-242 [3, 14]: more potent than analog 19 and a dimer with a 12-carbon linker 36-242; potency in HGSC panel [3, 14]: sub μM; SP cells eliminated, A2780 [4]: > 98%; caspase 3/7 activity [5]: Increased caspase 3/7 activity was seen in three of the five HGSC cell lines; inhibition of NFκB transcription activity [9]: Dose-dependent inhibition was observed; crosslinking (high molecular weight bands) [10]: High molecular weight bands in the NFκB and IKBα blots were observed; bands in time course study ([10]; time course study): a band between 150 and 250 kDa in addition to the IKBα-NFκB bands; protein degradation / PARP cleavage ([10]; time course study): degradation of IKK α/β and PARP cleavage; IC50 [11]: > 20000 nM; apparent therapeutic index ([11]; FT282 IC50 vs average HGSC IC50): greater than 25
C=C1CC2(OC1=O)C(=O)N(CCCCCCCCCCCCN1C(=O)C3(CC(=C)C(=O)O3)c3ccccc31)c1ccccc12 (centres unmarked) [Compound 36-242] | 0.5 ± 0.06 | 0.47 ± 1.29 | 1.94 | potency relative to monomeric compound 19 [12]: 10 fold; IC50 [11]: > 20000 nM
C=C1CC2(OC1=O)C(=O)Nc1ccccc12 (centres unmarked) [Compound 19] |  |  |  | crosslinking (high molecular weight bands) [10]: High molecular weight bands in the NFκB and IKBα blots were observed; IC50 [11]: > 20000 nM
C=C1CC2(OC1=O)C(=O)N(CCN1C(=O)C3(CC(=C)C(=O)O3)c3ccccc31)c1ccccc12 (centres unmarked) [Compound 40-059] | 0.42 ± 0.04 | 0.32 ± 0.02 |  | 
C=C1CC2(OC1=O)C(=O)N(CCCCCCCCN1C(=O)C3(CC(=C)C(=O)O3)c3ccccc31)c1ccccc12 (centres unmarked) [Compound 36-254] | 0.6 ± 0.07 | 0.32 | 1.7 | 
C=C1CC2(OC1=O)C(=O)N(CCCCCCCCCCN1C(=O)C3(CC(=C)C(=O)O3)c3ccccc31)c1ccccc12 (centres unmarked) [Compound 36-256] | 0.49 ± 0.06 | 0.41 ± 0.06 | 1.47 | 
C=C1CC2(OC1=O)C(=O)N(Cc1ccc(CN3C(=O)C4(CC(=C)C(=O)O4)c4ccccc43)cc1)c1ccccc12 (centres unmarked) [Compound 40-014] | 0.31 ± 0.02 | 0.18 ± 0.01 |  | 
C=C1CC2(OC1=O)C(=O)N(CCCCCCCN1C(=O)C3(CC(=C)C(=O)O3)c3c(C)ccc(C)c31)c1c(C)ccc(C)c12 (centres unmarked) [Compound 36-280] | 0.35 ± 0.05 | 0.37 ± 0.04 |  | 
C=C1CC2(OC1=O)C(=O)N(CCCN1C(=O)C3(CC(=C)C(=O)O3)c3ccccc31)c1ccccc12 (centres unmarked) [Compound 36-286] | 0.23 ± 0.02 | 0.09 ± 0.01 |  | 
C=C1CC2(NC1=O)C(=O)Nc1ccccc12 (centres unmarked) [Compound 25-4] | 0.99 ± 0.11 | 3.13 ± 0.55 | 6.08 | 
C=C1CC2(OC1=O)C(=O)N(CCCCCCN1C(=O)C3(CC(=C)C(=O)O3)c3ccccc31)c1ccccc12 (centres unmarked) [Compound 36-239] | 0.7 ± 0.09 | 0.3 ± 0.02 | 1.05 | 
C=C1CC2(OC1=O)C(=O)N(CCCCCCCCCN1C(=O)C3(CC(=C)C(=O)O3)c3ccccc31)c1ccccc12 (centres unmarked) [Compound 36-204] | 1.08 ± 0.01 | 0.48 ± 0.06 | 2.16 | 
C=C1CC2(OC1=O)C(=O)N(CCCCCCCCCCCN1C(=O)C3(CC(=C)C(=O)O3)c3ccccc31)c1ccccc12 (centres unmarked) [Compound 36-258] | 0.77 ± 0.14 | 0.83 ± 0.12 |  | 
CC1CC2(OC1=O)C(=O)N(CCCCCCCN1C(=O)C3(CC(C)C(=O)O3)c3ccccc31)c1ccccc12 (centres unmarked) [Compound 36-297] |  |  |  | IC50 (μM) A2780 [6]: Inactive; IC50 (μM) OVCAR5 ([7]; 72 hour incubation): Inactive
C=C1CC2(NC1=O)C(=O)N(CCCCN1C(=O)C3(CC(=C)C(=O)N3)c3ccccc31)c1ccccc12 (centres unmarked) [Compound 40-038] | 0.4 ± 0.06 | 0.2 ± 0.04 |  | 
C=C1CC2(OC1=O)C(=O)N(CCCCCN1C(=O)C3(CC(=C)C(=O)O3)c3ccccc31)c1ccccc12 (centres unmarked) [Compound 36-202] | 0.29 ± 0.04 | 0.09 ± 0.01 | 0.91 | 
